In US20260007599A1, “TICAGRELOR IV FORMULATIONS FOR USE IN THE TREATMENT OF GRAM-POSITIVE BACTEREMIA” (Hyloris Developments SA, priority 2023, published 2026):

What was measured:
[1] = Impact of packaging material on stability, 40° C./75% RH; format: physicochemical; parameters: Assay: unit not given here; settings: for Acetal impurity / Amine impurity / Assay / Description / Regiomer / Sum impurities >0.05 / Total (impurity) / Triol impurity / pH: HPβCD 32.5% w/w, 5 mM pH 7.5 phosphate buffer, 40° C./75% RH
Method: To study the potential impact of the packaging material on the stability of the ticagrelor-cyclodextrin inclusion complex, a composition with 32.5% w/w HPβCD was prepared with procedures and precaution's similar to previous trials; samples were stored in transparent clear glass vials and amber colored glass vials at a temperature of 40° C./75% RH.

[2] = 30-42% confidence interval; cited from earlier work

For `CCCSc1nc(N[C@@H]2C[C@H]2c2ccc(F)c(F)c2)c2nnn([C@@H]3C[C@H](OCCO)[C@@H](O)[C@H]3O)c2n1` [ticagrelor, (1S,2S,3R,5S)-3-{7-[(1R,2S)-2-(3,4-difluorophenyl)cyclopropylamino]5-(propylthio)-3H-(1,2,3)triazolo (4,5-D)pyrimidin-3-yl}-5-(2 hydroxyethoxy) cyclopentane-1,2-diol], the “difference between clear and amber glass vials” value ([1]; accelerated storage stability test, after 3 months) was “no significant difference”, the “number of different impurities developed on storage” value ([1]; accelerated storage stability test, without the cyclodextrin) was 6 to 8 and the Acetal impurity ([1]; amber glass vials, 1 M) was 0.05%. The Amine impurity ([1]; amber glass vials, 1 M) was 0.04%, the Assay ([1]; amber glass vials, 1 M) was 100.24 and the Description ([1]; amber glass vials, 1 M) was “clear”. The Regiomer ([1]; amber glass vials, 1 M) was 0.01%, the “Sum impurities >0.05” value ([1]; amber glass vials, 1 M) was 0.05% and the “Total (impurity)” value ([1]; amber glass vials, 1 M) was 0.22%. For the same molecule, the Triol impurity ([1]; amber glass vials, 1 M) was 0.02%, the pH ([1]; amber glass vials, 1 M) was 7.70 and the Acetal impurity ([1]; amber glass vials, 2 M) was 0.04%. For the same molecule, the Amine impurity ([1]; amber glass vials, 2 M) was 0.04%, the Assay ([1]; amber glass vials, 2 M) was 99.89 and the Description ([1]; amber glass vials, 2 M) was “clear”. The Regiomer ([1]; amber glass vials, 2 M) was 0.02%, the “Sum impurities >0.05” value ([1]; amber glass vials, 2 M) was 0.00% and the “Total (impurity)” value ([1]; amber glass vials, 2 M) was 0.28%. The Triol impurity ([1]; amber glass vials, 2 M) was 0.04%, the pH ([1]; amber glass vials, 2 M) was 7.69 and the Acetal impurity ([1]; amber glass vials, 3 M) was 0.05%. For the same molecule, the Amine impurity ([1]; amber glass vials, 3 M) was 0.06%, the Assay ([1]; amber glass vials, 3 M) was 98.93 and the Description ([1]; amber glass vials, 3 M) was “clear”. The Regiomer ([1]; amber glass vials, 3 M) was 0.04%, the “Sum impurities >0.05” value ([1]; amber glass vials, 3 M) was 0.16% and the “Total (impurity)” value ([1]; amber glass vials, 3 M) was 0.33%. For the same molecule, the Triol impurity ([1]; amber glass vials, 3 M) was 0.05%, the pH ([1]; amber glass vials, 3 M) was 7.66 and the Acetal impurity ([1]; amber glass vials, T0) was 0.05%. The Amine impurity ([1]; amber glass vials, T0) was 0.04%, the Assay ([1]; amber glass vials, T0) was 98.34 and the Description ([1]; amber glass vials, T0) was “clear”. The Regiomer ([1]; amber glass vials, T0) was 0.00%, the “Sum impurities >0.05” value ([1]; amber glass vials, T0) was 0.18% and the “Total (impurity)” value ([1]; amber glass vials, T0) was 0.40%. It also gave a Triol impurity ([1]; amber glass vials, T0) of 0.04%, a pH ([1]; amber glass vials, T0) of 7.66 and an Acetal impurity ([1]; clear glass vials, 1 M) of 0.04%. For the same molecule, the Amine impurity ([1]; clear glass vials, 1 M) was 0.04%, the Assay ([1]; clear glass vials, 1 M) was 101.71 and the Description ([1]; clear glass vials, 1 M) was “clear”. For the same molecule, the Regiomer ([1]; clear glass vials, 1 M) was 0.01%, the “Sum impurities >0.05” value ([1]; clear glass vials, 1 M) was 0.00% and the “Total (impurity)” value ([1]; clear glass vials, 1 M) was 0.22%. For the same molecule, the Triol impurity ([1]; clear glass vials, 1 M) was 0.03%, the pH ([1]; clear glass vials, 1 M) was 7.65 and the Acetal impurity ([1]; clear glass vials, 2 M) was 0.04%. For the same molecule, the Amine impurity ([1]; clear glass vials, 2 M) was 0.04%, the Assay ([1]; clear glass vials, 2 M) was 99.69 and the Description ([1]; clear glass vials, 2 M) was “clear”. For the same molecule, the Regiomer ([1]; clear glass vials, 2 M) was 0.02%, the “Sum impurities >0.05” value ([1]; clear glass vials, 2 M) was 0.05% and the “Total (impurity)” value ([1]; clear glass vials, 2 M) was 0.28%. The Triol impurity ([1]; clear glass vials, 2 M) was 0.05%, the pH ([1]; clear glass vials, 2 M) was 7.63 and the Acetal impurity ([1]; clear glass vials, 3 M) was 0.05%. For the same molecule, the Amine impurity ([1]; clear glass vials, 3 M) was 0.06%, the Assay ([1]; clear glass vials, 3 M) was 98.25 and the Description ([1]; clear glass vials, 3 M) was “clear”. For the same molecule, the Regiomer ([1]; clear glass vials, 3 M) was 0.04%, the “Sum impurities >0.05” value ([1]; clear glass vials, 3 M) was 0.16% and the “Total (impurity)” value ([1]; clear glass vials, 3 M) was 0.33%. It also gave a Triol impurity ([1]; clear glass vials, 3 M) of 0.05%, a pH ([1]; clear glass vials, 3 M) of 7.58 and an Acetal impurity ([1]; clear glass vials, T0) of 0.05%. For the same molecule, the Amine impurity ([1]; clear glass vials, T0) was 0.04%, the Assay ([1]; clear glass vials, T0) was 98.34 and the Description ([1]; clear glass vials, T0) was “clear”. The Regiomer ([1]; clear glass vials, T0) was 0.00%, the “Sum impurities >0.05” value ([1]; clear glass vials, T0) was 0.22% and the “Total (impurity)” value ([1]; clear glass vials, T0) was 0.40%. For the same molecule, the Triol impurity ([1]; clear glass vials, T0) was 0.05%, the pH ([1]; clear glass vials, T0) was 7.65 and the Oral bioavailability [2] was 36%.
